{"source": "patent US20240260569A1", "about": "“DISINFECTANT LIQUID, PREPARATION METHOD THEREOF AND FILM LAYER” (Shanghai Anpas New Materials Science & Technology Co., Ltd., priority 2021, published 2024)", "origin": "cited, not measured here", "key": {"[1]": {"details": "aqueous solution"}, "[2]": {"details": "relative to hypochlorite ions"}}, "note": "Like-named read-outs stand apart in the source and are kept apart here."}
{"smiles": "OCl", "note": "[sodium hypochlorite]", "values": [{"measurement": "pH of a 10% solution", "value": "around 12"}, {"measurement": "active chlorine loss", "setting": "[1]; pH 9.4, after 14 days at 55° C.", "value": 63, "unit": "%"}, {"measurement": "active chlorine loss", "setting": "[1]; pH=8.7, after 14 days at 55° C.", "value": 94, "unit": "%"}]}
{"smiles": "O=c1nc([O-])n(Cl)c(=O)n1Cl.[Na+]", "note": "[Sodium dichloroisocyanurate]", "values": [{"measurement": "active chlorine loss", "setting": "[1]; within a week", "value": "about 50%"}]}
{"smiles": "OCl", "note": "[hypochlorous acid]", "values": [{"measurement": "disinfection and sterilization ability versus hypochlorite ions", "setting": "[2]", "value": "80 to 100", "unit": "times"}]}
